molecular target: Recombinant human Mat2a (Homo sapiens, UniProt P31153); assay: Determination of Mat2A activity (384 well absorbance-based assay, Biomol Green); type: biochemical; conditions: 12.5 nM Mat2A, 100 μM ATP and Methionine, 2% DMSO, 120 minutes at RT, absorbance at 635 nm
Method: Determination of Mat2A activity
Measurement of Mat2A inhibition is performed in 384 well format absorbance-based assay. Recombinant human Mat2a (12.5 nM) and serial diluted compounds in DMSO (range of concentrations from […] to 508 pM) or controls (DMSO) are incubated for 15 minutes at room temperature (RT) in assay buffer containing 50 mM HEPES pH 7.5, 50 mM KCl, 50 mM MgCl2, 0.01% Tween 20 and 10 mM DTT. The reaction is initiated by the addition of the combined substrates ATP and Methionine, each at a final concentration of 100 μM. Final assay condition are 12.5 nM Mat2A, 100 μM ATP and Methionine Substrates and 2% DMSO. After 120 minutes of incubation at RT, the reaction is stopped by the addition of Biomol Green. The absorbance signal is measured at λ=635 nm with a multiplate reader (BMG Pherastar reader or equivalent) after 30 min of equilibration at RT.

Chain of Recombinant human Mat2a (P31153 whole entry): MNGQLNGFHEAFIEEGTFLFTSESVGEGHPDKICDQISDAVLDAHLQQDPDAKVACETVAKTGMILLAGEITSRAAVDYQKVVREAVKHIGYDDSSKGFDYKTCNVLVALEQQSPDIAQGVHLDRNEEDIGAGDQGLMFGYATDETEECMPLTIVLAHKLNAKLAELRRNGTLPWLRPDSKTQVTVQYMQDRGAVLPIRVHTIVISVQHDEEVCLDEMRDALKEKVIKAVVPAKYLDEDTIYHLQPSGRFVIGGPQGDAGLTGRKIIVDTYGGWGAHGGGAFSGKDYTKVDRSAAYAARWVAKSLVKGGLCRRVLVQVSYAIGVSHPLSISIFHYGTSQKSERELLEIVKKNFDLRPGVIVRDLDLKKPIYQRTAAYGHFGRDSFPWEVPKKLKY

Structure (SMILES)	IC50 [nM]
Nc1nc(=O)n(C2CCCOC2)c2nc(C3CC3)ccc12 (stereo not shown) [Example 12, 4-amino-7-cyclopropyl-1-(oxan-3-yl)pyrido[2,3-d]pyrimidin-2-one]	< 13
CC(C1CCOC1)n1c(=O)nc(N)c2ccc(C3CC3)nc21 (stereo not shown) [Example 13, 4-amino-7-cyclopropyl-1-[1-(oxolan-3-yl)ethyl]pyrido[2,3-d]pyrimidin-2-one]	23
Cc1c(C#N)cccc1-n1c(=O)nc(N)c2ccc(C3CC3)nc21 [Example 15, 3-(4-amino-7-cyclopropyl-2-oxopyrido[2,3-d]pyrimidin-1(2H)-yl)-2-methylbenzonitrile]	< 13
Nc1nc(=O)n(-c2cccc3c2CCO3)c2nc(C3CC3)ccc12 [Example 17, 4-amino-7-cyclopropyl-1-(2,3-dihydrobenzofuran-4-yl)pyrido[2,3-d]pyrimidin-2(1H)-one]	95
Cc1ncccc1-n1c(=O)nc(N)c2cc(Cl)c(C3CC3)nc21 [Example 18, 4-amino-6-chloro-7-cyclopropyl-1-(2-methylpyridin-3-yl)pyrido[2,3-d]pyrimidin-2(1H)-one]	< 13
COc1c(C#N)cccc1-n1c(=O)nc(N)c2ccc(C3CC3)nc21 [Example 19, 3-(4-amino-7-cyclopropyl-2-oxopyrido[2,3-d]pyrimidin-1(2H)-yl)-2-methoxybenzonitrile]	< 13
CC(C1CCCO1)n1c(=O)nc(N)c2ccc(C3CC3)nc21 (stereo not shown) [Example 21, 4-amino-7-cyclopropyl-1-(1-(tetrahydrofuran-2-yl)ethyl)pyrido[2,3-d]pyrimidin-2(1H)-one]	86
Cc1c(F)cccc1-n1c(=O)nc(N)c2ccc(C3CC3)nc21 [Example 25, 4-amino-7-cyclopropyl-1-(3-fluoro-2-methylphenyl)pyrido[2,3-d]pyrimidin-2(1H)-one]	< 13
Nc1nc(=O)n([C@@H]2CCCOC2)c2nc(C3CC3)ccc12 [Example 26, 4-amino-7-cyclopropyl-1-[(3R)-oxan-3-yl]pyrido[2,3-d]pyrimidin-2-one]	< 13
Cc1ncccc1-n1c(=O)nc(N)c2ccc(C(F)(F)F)cc21 [Example 29, 4-amino-1-(2-methylpyridin-3-yl)-7-(trifluoromethyl)quinazolin-2-one]	< 13
Cc1ncccc1-n1c(=O)nc(N)c2ccc(C(F)(F)F)nc21 [Example 32, 4-amino-1-(2-methylpyridin-3-yl)-7-(trifluoromethyl)pyrido[2,3-d]pyrimidin-2(1H)-one]	< 13
Nc1nc(=O)n(C2CCC(O)C2)c2nc(C3CC3)ccc12 (stereo not shown) [Example 33, 4-amino-7-cyclopropyl-1-(3-hydroxycyclopentyl)pyrido[2,3-d]pyrimidin-2(1H)-one]	< 13
Cc1ncccc1-n1c(=O)nc(N)c2ccc(OC(F)F)cc21 [Example 34]	< 13
Cc1ncccc1-n1c(=O)nc(N)c2ccc(OC(F)(F)F)cc21 [Example 40, 4-amino-1-(2-methylpyridin-3-yl)-7-(trifluoromethoxy)quinazolin-2(1H)-one]	< 13
Cc1ncncc1-n1c(=O)nc(N)c2ccc(C3CC3)nc21 [Example 42, 4-amino-7-cyclopropyl-1-(4-methylpyrimidin-5-yl)pyrido[2,3-d]pyrimidin-2(1H)-one]	< 13
Cc1ccncc1-n1c(=O)nc(N)c2ccc(C3CC3)nc21 [Example 47, 4-amino-7-cyclopropyl-1-(4-methylpyridin-3-yl)pyrido[2,3-d]pyrimidin-2(1H)-one]	< 13
CCc1ccc2c(N)nc(=O)n(-c3cccnc3C)c2c1 [Example 48, 4-amino-7-ethyl-1-(2-methylpyridin-3-yl)quinazolin-2(1H)-one]	< 13
Cc1ccccc1-n1c(=O)nc(N)c2cnc(C3CC3)cc21 [Example 52, 4-amino-7-cyclopropyl-1-(o-tolyl)pyrido[4,3-d]pyrimidin-2(1H)-one]	43
Cc1ncccc1-n1c(=O)nc(N)c2ccc(C3CCC3)nc21 [Example 53, 4-amino-7-cyclobutyl-1-(2-methyl-3-pyridyl)pyrido[2,3-d]pyrimidin-2-one]	< 13
COc1ncccc1-n1c(=O)nc(N)c2ccc(C3CCCCO3)nc21 (stereo not shown) [Example 54, 4-amino-1-(2-methoxy-3-pyridyl)-7-tetrahydropyran-2-yl-pyrido[2,3-d]pyrimidin-2-one]	140
Cc1ncccc1-n1c(=O)nc(N)c2c(F)cc(C(F)(F)F)cc21 [Example 59, 4-amino-5-fluoro-1-(2-methylpyridin-3-yl)-7-(trifluoromethyl)quinazolin-2 (1H)-one]	14
COc1nccc(F)c1-n1c(=O)nc(N)c2ccc(C3CC3)nc21 [Example 60, 4-amino-7-cyclopropyl-1-(4-fluoro-2-methoxypyridin-3-yl)pyrido[2,3-d]pyrimidin-2(1H)-one]	20

Now from value to compound:

IC50 [nM]	Structure (SMILES)
27	COc1c(F)cccc1-n1c(=O)nc(N)c2ccc(C3CC3)nc21 [Example 14, 4-amino-7-cyclopropyl-1-(3-fluoro-2-methoxyphenyl)pyrido[2,3-d]pyrimidin-2(1H)-one]
< 13	Cc1ncccc1-n1c(=O)nc(N)c2ccc(C(C)C)nc21 [Example 16, 4-amino-1-(2-methylpyridin-3-yl)-7-propan-2-ylpyrido[2,3-d]pyrimidin-2-one]
15	CCOc1c(C#N)cccc1-n1c(=O)nc(N)c2ccc(C3CC3)nc21 [Example 20, 3-(4-amino-7-cyclopropyl-2-oxopyrido[2,3-d]pyrimidin-1(2H)-yl)-2-ethoxybenzonitrile]
21	Cc1ncccc1-n1c(=O)nc(N)c2ccc(C3COC3)cc21 [Example 22, 4-amino-1-(2-methylpyridin-3-yl)-7-(oxetan-3-yl)quinazolin-2(1H)-one]
42	Nc1nc(=O)n([C@H]2CCCOC2)c2nc(C3CC3)ccc12 [Example 27, 4-amino-7-cyclopropyl-1-[(3S)-oxan-3-yl]pyrido[2,3-d]pyrimidin-2-one]
57	CC1COCC1n1c(=O)nc(N)c2ccc(C3CC3)nc21 (stereo not shown) [Example 28, 4-amino-7-cyclopropyl-1-(4-methyltetrahydro-furan-3-yl)pyrido[2,3-d]pyrimidin-2(1H)-one]
18	Cc1ncccc1-n1c(=O)nc(N)c2ccc(OC3CC3)cc21 [Example 31, 4-amino-7-cyclopropyloxy-1-(2-methylpyridin-3-yl)quinazolin-2-one]
< 13	Cc1ncccc1-n1c(=O)nc(N)c2ccc(C(F)F)cc21 [Example 35, 4-amino-7-(difluoromethyl)-1-(2-methylpyridin-3-yl)quinazolin-2(1H)-one]
15	Cc1ncccc1-n1c(=O)nc(N)c2cc(C#N)c(C3CC3)nc21 [Example 37, 4-amino-7-cyclopropyl-1-(2-methylpyridin-3-yl)-2-oxo-1,2-dihydropyrido[2,3-d]pyrimidine-6-carbonitrile]
< 13	COc1c(C#N)cccc1-n1c(=O)nc(N)c2ccc(C(C)C)nc21 [Example 38, 3-(4-amino-7-isopropyl-2-oxopyrido[2,3-d]pyrimidin-1(2H)-yl)-2-methoxybenzonitrile]
< 13	COc1ccc2c(N)nc(=O)n(-c3cccnc3C)c2c1 [Example 39, 4-amino-7-methoxy-1-(2-methylpyridin-3-yl)quinazolin-2(1H)-one]
45	Cc1ncccc1-n1c(=O)nc(N)c2ccc(C3=COCC3)nc21 [Example 41, 4-amino-7-(4,5-dihydrofuran-3-yl)-1-(2-methylpyridin-3-yl)pyrido[2,3-d]pyrimidin-2 (1H)-one]
< 13	Nc1nc(=O)n(-c2cccnc2C(F)(F)F)c2nc(C3CC3)ccc12 [Example 43, 4-amino-7-cyclopropyl-1-(2-(trifluoromethyl)pyridin-3-yl)pyrido[2,3-d]pyrimidin-2(1H)-one]
< 13	Cn1nccc1-n1c(=O)nc(N)c2ccc(C3CC3)nc21 [Example 44, 4-amino-7-cyclopropyl-1-(2-methylpyrazol-3-yl)pyrido[2,3-d]pyrimidin-2-one]
< 13	Nc1nc(=O)n(-c2cccc3c2CCO3)c2cc(C3CC3)ccc12 [Example 45, 4-amino-7-cyclopropyl-1-(2,3-dihydrobenzofuran-4-yl)quinazolin-2(1H)-one]
31	Nc1nc(=O)n([C@@H]2CCCOC2)c2cc(C(F)(F)F)ccc12 [Example 46, (R)-4-amino-1-(tetrahydro-2H-pyran-3-yl)-7-(trifluoromethyl)quinazolin-2(1H)-one]
19	Cc1ncoc1-n1c(=O)nc(N)c2ccc(C3CC3)nc21 [Example 50, 4-amino-7-cyclopropyl-1-(4-methyloxazol-5-yl)pyrido[2,3-d]pyrimidin-2-one]
< 13	Cc1ncsc1-n1c(=O)nc(N)c2ccc(C3CC3)nc21 [Example 51, 4-amino-7-cyclopropyl-1-(4-methylthiazol-5-yl)pyrido[2,3-d]pyrimidin-2-one]
17	Cc1ncncc1-n1c(=O)nc(N)c2ccc(C3CCCC3)nc21 [Example 55, 4-amino-7-cyclopentyl-1-(4-methylpyrimidin-5-yl)pyrido[2,3-d]pyrimidin-2-one]
< 13	Cc1ncccc1-n1c(=O)nc(N)c2ccc(C3CCCC3)nc21 [Example 56, 4-amino-7-cyclopentyl-1-(2-methyl-3-pyridyl)pyrido[2,3-d]pyrimidin-2-one]
22	Cc1ncccc1-n1c(=O)nc(N)c2ccc(C(C)(C)F)cc21 [Example 58, 4-amino-7-(2-fluoropropan-2-yl)-1-(2-methylpyridin-3-yl)quinazolin-2-one]
